Measured values published in patent US8609731B2, “Substituted tetrahydronaphthalenes, process for the preparation thereof and the use thereof as medicaments” (SANOFI, priority 2007, dated 2013).
Converted amounts (≈) assume the structure as drawn.

Experiments:
human MCH receptor = molecular target: T1, human MCH receptor (Homo sapiens, UniProt Q99705); experiment: calcium mobilization assay (FLIPR); functional IC50 of MCH1R antagonists; type: cell-based; details: recombinant HEK293 cell line expressing human MCH receptor; calcium flux after addition of agonist MCH
T1 construct: expressed in transfected cells
T1 sequence (Q99705 whole entry): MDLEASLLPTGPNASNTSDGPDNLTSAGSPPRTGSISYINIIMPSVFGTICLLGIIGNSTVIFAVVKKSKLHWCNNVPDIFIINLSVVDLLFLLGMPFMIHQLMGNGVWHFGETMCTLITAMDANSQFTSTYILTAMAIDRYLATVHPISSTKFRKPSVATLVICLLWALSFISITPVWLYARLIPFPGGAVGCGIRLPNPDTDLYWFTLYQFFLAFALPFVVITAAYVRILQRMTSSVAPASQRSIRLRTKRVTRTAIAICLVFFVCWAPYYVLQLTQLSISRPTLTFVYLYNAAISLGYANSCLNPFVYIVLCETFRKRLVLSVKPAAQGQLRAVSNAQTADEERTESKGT
Description: Influence on the MCH Receptor In Vitro; Determination of Functional IC50 Values of MCH1R Antagonists
Cloning of the cDNA for the human MCH receptor, preparation of a recombinant HEK293 cell line which expresses the human MCH receptor, and functional measurements with the recombinant cell line took place in analogy to the description by Audinot et al. (J. Biol. Chem. 2001, 276, 13554-13562). A difference from the reference was, however, the use of the plasmid pEAK8 from EDGE Biosystems (USA) for the construction of the expression vector. The host used for the transfection was a transformed HEK cell line named “PEAK Stable Cells” (likewise from EDGE Biosystems). Functional measurements of the cellular calcium flux after addition of agonist (MCH) in the presence of ligand of the invention took place with the aid of the FLIPR apparatus from Molecular Devices (USA), using protocols of the apparatus manufacturer. The compounds of the invention show a significant inhibition (>30%) of the signal induced by the agonist at a concentration of 100 μM, preferably at 10 μM, particularly preferably at 1 μM, very particularly preferably at 100 nM and very very particularly preferably at 10 nM.

hERG channel = molecular target: T2, hERG channel (Homo sapiens, UniProt Q12809); experiment: hERG channel blockade, whole-cell patch clamp in CHO cells expressing hERG; type: cell-based; details: CHO cells with stable hERG expression, room temperature, read-out: hERG Inh. IC50
T2 construct: expressed in transfected cells; host or cells: CHO cells (ATCC), pcDNA3 vector, G418 selection
T2 sequence (Q12809 whole entry): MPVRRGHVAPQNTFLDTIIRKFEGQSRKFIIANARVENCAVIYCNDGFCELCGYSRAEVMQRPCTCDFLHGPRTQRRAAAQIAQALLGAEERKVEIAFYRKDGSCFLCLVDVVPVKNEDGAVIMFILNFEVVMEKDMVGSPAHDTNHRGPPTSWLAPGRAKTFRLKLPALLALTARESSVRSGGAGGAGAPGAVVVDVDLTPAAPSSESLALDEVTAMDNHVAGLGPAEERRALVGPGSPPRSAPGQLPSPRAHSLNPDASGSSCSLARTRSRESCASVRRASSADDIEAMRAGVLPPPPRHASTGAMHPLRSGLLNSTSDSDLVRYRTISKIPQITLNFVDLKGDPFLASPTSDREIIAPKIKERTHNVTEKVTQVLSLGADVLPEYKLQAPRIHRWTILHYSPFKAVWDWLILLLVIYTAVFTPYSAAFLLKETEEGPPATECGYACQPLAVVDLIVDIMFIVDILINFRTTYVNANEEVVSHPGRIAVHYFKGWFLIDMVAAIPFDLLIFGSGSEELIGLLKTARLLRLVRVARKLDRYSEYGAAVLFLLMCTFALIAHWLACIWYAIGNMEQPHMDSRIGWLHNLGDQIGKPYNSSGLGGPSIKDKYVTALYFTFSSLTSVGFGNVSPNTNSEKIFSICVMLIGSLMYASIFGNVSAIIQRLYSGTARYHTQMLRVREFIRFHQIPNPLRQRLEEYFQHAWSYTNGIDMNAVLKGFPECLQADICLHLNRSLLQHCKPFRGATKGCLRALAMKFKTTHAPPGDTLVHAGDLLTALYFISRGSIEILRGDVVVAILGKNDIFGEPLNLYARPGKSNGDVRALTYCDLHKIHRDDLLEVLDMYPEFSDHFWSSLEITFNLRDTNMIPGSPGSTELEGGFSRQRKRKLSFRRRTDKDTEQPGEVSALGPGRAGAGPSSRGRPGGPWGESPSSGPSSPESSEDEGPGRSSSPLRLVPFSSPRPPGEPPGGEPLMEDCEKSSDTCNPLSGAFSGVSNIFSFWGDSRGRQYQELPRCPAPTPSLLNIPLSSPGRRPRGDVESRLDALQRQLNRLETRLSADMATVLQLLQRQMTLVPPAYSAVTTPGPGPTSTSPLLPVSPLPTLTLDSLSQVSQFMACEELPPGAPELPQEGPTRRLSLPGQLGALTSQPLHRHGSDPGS
Description: The aim of the test is to determine the concentration range in which the test compound blocks the cardiac hERG channel. Blockade of the hERG channel, which is responsible for the Ikr current in the human heart, is associated with potentially fatal arrhythmias.
For expression of the cDNA encoding the hERG channel it was cloned into the pcDNA3 vector (Invitrogen). Chinese hamster […] (CHO, American Type Culture Collection, Rockville, Md.) were transfected using lipofectamine (GIBCO/BRL, Grand Island, N.Y.) with the hERG cDNA and selected using G418 (GIBCO/BRL, Grand Island, N.Y.; 500 μg/ml). CHO cells with stable expression of the hERG channel were cultured on a HAM F-12 medium which was supplemented with 10% native bovine serum, 1× penicillin/streptomycin and 500 μg/ml G418 in an atmosphere of 95% air/5% carbon dioxide.
The cells selected for the patch clamp experiment are seeded on a plastic support 18-24 hours before the experiment. HERG channel currents are recorded at room temperature by the whole-cell variant of the patch clamp technique using an Axopatch 200B amplifier (Axon Instruments, Foster City, Calif.). The electrodes (3-6 megaohms resistance) are prepared from TW150F glass capillaries (World Precision Instruments, Sarasota, Fla.) and filled with the pipette solution (120 mM potassium aspartate, 20 mM KCl, 4 mM Na2ATP, 5 mM HEPES, 1 mM MgCl2; adjusted to pH 7.2 with KOH). The hERG channel currents are induced by a positive voltage pulse (20 mV) followed by a negative pulse (−40 mV) and are recorded for later analysis. As soon as the hERG channel current of the cell flushed with the control solution ([…], 5 mM KCl, 2.8 mM NaOAc, 1 mM MgCl2, 10 mM HEPES; 10 mM glucose, 1 mM CaCl2; adjusted to pH 7.4 with NaOH) is stable, the cell is perfused with the test compound dissolved in the above control solution (by dilution of a 10 or 100 mM DMSO solution of the test compound so that the DMSO content is no more than 0.1%). The current is followed continuously until no further changes occur. The same procedure is repeated with increasing concentrations of the test compound. The maximum amplitude of the hERG current is measured in picoAmperes (pA) for each concentration and for each cell. The maximum amplitude in pA for each concentration of the test compound is compared with that of the pure control solution in the same cell and calculated as % of the control value.
Evaluation: The test compound is tested at various concentrations in 3-5 CHO cells which express the hERG channel. The IC50 is obtained by use of nonlinear least squares regression (GraphPAD Software, San Diego, Calif.).

physchem = type: physicochemical; details: pH 7.4, aqueous buffer, kinetic from dmso stock
Method: A DMSO solution of the test compound (2.5 mM; 0.5 μl) is pipetted into 200 μl of an aqueous test solution (e.g. phosphate-buffered saline, 10×, 1M, Sigma, adjusted to 10 mM, pH 7.4) in a 96-well microtiter plate, and the turbidity is measured at the resulting theoretical concentration for the test compound of 6.25 μM using a nephelometer (e.g. Nephelostar Galaxy, BMG Labtech). The concentration of the test compound in the aqueous test solution is then raised to a theoretical 12.5 μM by adding further DMSO solution (2.5 mM; 0.5 μl), and the turbidity measurement is repeated. Further additions of DMSO solutions (1 μl, 2.5 mM; 0.5 μl, 10 mM; then 9×1 μl, 10 mM resulting in theoretical concentrations of 25 μM, 50 μM, 100 μM, 150 μM, 200 μM, 250 μM, 300 μM, 350 μM, 400 μM, 450 μM and 500 μM) with turbidity measurement in between complete the measurement process.
Evaluation: The turbidity values from the nephelometer are plotted against the theoretical concentration of the test compound in the aqueous test solution. As soon as a significant turbidity is detected (e.g. 5 times above the control value of the aqueous test solution) at a theoretical concentration, the level of concentration below this is stated to be the solubility limit of the test compound in the test solution. Thus, the maximum possible measurement range emerges as values <6.25 μM, 6.25−500 μM and >500 μM.

SMILES | IC50 (human MCH receptor) | IC50 (hERG channel) | solubility kinetic (physchem)
O=C(N[C@H]1CCc2cc(CN3CCCC3)ccc2C1)c1ccc(OC[C@@H]2CCCO2)cc1 [Example 1, N-((S)-6-Pyrrolidin-1-ylmethyl-1,2,3,4-tetrahydronaphthalen-2-yl)-4-[(S)-1-(tetrahydrofuran-2-yl)methoxy]benzamide] | 90 nM | > 30000 nM | > 500 µM
CC(C)(C)CNCc1ccc2c(c1)CC[C@H](NC(=O)c1ccc(OC[C@@H]3CCCO3)cc1)C2 [Example 3-34] | 100 nM | > 30000 nM | 50 µM (≈ 22.5 µg/mL)
O=C(N[C@H]1CCc2cc(CN3CC4CCC3C4)ccc2C1)c1ccc(OC[C@@H]2CCCO2)cc1 (some centres unmarked) [Example 3-83] |  | > 30000 nM | > 500 µM
CC1(C)CCN(Cc2ccc3c(c2)CC[C@H](NC(=O)c2ccc(OC[C@@H]4CCCO4)cc2)C3)CC1 [Example 3-166] | 110 nM | > 10000 nM | 450 µM (≈ 214 µg/mL)
COC1CCN(Cc2ccc3c(c2)CC[C@H](N2CCc4cc(OC[C@@H]5CCCO5)ccc4C2=O)C3)CC1 [Example 14, 2-[(S)-6-(4-Methoxypiperidin-1-ylmethyl)-1,2,3,4-tetrahydronaphthalen-2-yl]-6-[(S)-1-(tetrahydrofuran-2-yl)methoxy]-3,4-dihydro-2H-isoquinolin-1-one] | 630 nM | > 10000 nM | > 500 µM
